# Measured values from patent US10889581B2, “Cyclopropyl fused thiazine derivatives as beta-secretase inhibitors and methods of use” (AMGEN INC., priority 2016, dated 2021).
# Tests used:
# [1] = target: human recombinant BACE2 (Homo sapiens (Human), UniProt Q9Y5Z0); experiment: In vitro enzymatic BACE2 FRET assay; format: biochemical; conditions: pH 4.5, read-out: BACE2 Enzyme IC50
# [2] = target: T1, BACE1 (Homo sapiens (Human), UniProt P56817); experiment: In vitro BACE1 cell-based assay (Aβ40 in conditioned medium of cells stably expressing APP, HTRF)
# Procedure: In Vitro BACE1 Cell-Based Assay
# The cell-based assay measures inhibition or reduction of Aβ40 in conditioned medium of test compound treated cells expressing amyloid precursor protein. Cells stably expressing Amyloid Precursor Protein (APP) were plated at a density of 45K cells/well in 384 well plates (Corning/BioCoat 354663). The test compounds were then added to cells in 22-point dose response concentrations with the starting concentration being 62.5 μM. The compounds were diluted from stock solutions in DMSO and the final DMSO concentration of the test compounds on cells was 0.625%. The cells were cultivated overnight at 37° C. and 5% CO2 in DMEM supplemented with 10% FBS. After 24 h of incubation with the test compounds, the conditioned media was collected and the Aβ40 levels were determined using HTRF (Homogeneous Time Resolved Fluorescence). The IC50 of the compound was calculated from the percent of control or percent inhibition of Aβ40 as a function of the concentration of the test compound.
# The HTRF to detect Aβ40 was performed in 384 well plates (Costar 3658). The antibody pair that were used to detect Aβ40 from cell supernatants were ConfAb40 antibody (Amgen in-house) and biotinylated 6E10 (BIOLEGEND). As an alternative to ConfAb40, a commercially available antibody, Anti-beta Amyloid 1-40 antibody [BDI350] from Abcam, Cambridge, Mass. 02139-1517 (Product code: ab20068), may be used in this assay. The concentrations were 0.35 μg/mL of ConfAb40 antibody and 1.33 μg/mL of 6E10-biotinylated antibody, as well as 4.5 μg/mL of Streptavidin Allophycocyanin Conjugate (ThermoFisher Scientific) in HTRF Buffer ([…], 1% BSA, 0.5% Tween 20).
# The conditioned media was incubated with above antibodies and Streptavidin Allophycocyanin Conjugate for 30-60 minutes at 23° C. The final readout was performed on Envision from PerkinElmer.
# Target sequence in this assay (P56817 46-501, species assumed): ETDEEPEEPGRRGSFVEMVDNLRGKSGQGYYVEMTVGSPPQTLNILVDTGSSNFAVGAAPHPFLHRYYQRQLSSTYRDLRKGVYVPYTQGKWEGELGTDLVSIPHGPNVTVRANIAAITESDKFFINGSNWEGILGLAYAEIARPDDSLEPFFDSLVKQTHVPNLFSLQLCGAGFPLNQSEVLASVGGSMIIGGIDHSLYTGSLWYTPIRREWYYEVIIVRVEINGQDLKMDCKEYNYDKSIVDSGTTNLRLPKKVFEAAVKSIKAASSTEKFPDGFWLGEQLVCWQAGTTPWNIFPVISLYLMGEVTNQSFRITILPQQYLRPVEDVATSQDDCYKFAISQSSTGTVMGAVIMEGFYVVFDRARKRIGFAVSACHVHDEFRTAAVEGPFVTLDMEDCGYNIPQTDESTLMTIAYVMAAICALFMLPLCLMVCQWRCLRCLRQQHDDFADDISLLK
# [3] = target: Recombinant CatD (Homo sapiens (Human), UniProt P07339); experiment: In vitro enzymatic Cathepsin D (CatD) FRET assay; format: biochemical; conditions: pH 3.5, read-out: Cat D Enzyme IC50
# [4] = target: T1, BACE1; experiment: In vitro enzymatic BACE1 FRET assay; format: biochemical; conditions: pH 4.5, read-out: BACE1 Enzyme IC50
# Target sequence in this assay (P56817 46-501): as the sequence (P56817 46-501, species assumed) above
# [5] = Aβ40, 24 h incubation, read-out: BACE1 Cell IC50
# Chain of human recombinant BACE2 (Q9Y5Z0 63-518): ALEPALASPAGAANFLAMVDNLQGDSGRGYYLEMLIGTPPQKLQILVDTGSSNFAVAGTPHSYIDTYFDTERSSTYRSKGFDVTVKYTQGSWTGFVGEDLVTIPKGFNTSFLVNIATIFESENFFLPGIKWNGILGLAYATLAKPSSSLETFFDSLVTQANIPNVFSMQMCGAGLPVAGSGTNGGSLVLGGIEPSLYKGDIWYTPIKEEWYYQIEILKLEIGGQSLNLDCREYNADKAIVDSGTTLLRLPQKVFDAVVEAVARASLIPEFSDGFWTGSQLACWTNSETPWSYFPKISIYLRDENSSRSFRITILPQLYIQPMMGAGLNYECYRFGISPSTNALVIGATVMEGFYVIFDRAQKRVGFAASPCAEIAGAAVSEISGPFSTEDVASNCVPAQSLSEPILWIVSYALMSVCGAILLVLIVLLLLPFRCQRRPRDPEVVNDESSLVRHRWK
# Chain of Recombinant CatD (P07339 65-412): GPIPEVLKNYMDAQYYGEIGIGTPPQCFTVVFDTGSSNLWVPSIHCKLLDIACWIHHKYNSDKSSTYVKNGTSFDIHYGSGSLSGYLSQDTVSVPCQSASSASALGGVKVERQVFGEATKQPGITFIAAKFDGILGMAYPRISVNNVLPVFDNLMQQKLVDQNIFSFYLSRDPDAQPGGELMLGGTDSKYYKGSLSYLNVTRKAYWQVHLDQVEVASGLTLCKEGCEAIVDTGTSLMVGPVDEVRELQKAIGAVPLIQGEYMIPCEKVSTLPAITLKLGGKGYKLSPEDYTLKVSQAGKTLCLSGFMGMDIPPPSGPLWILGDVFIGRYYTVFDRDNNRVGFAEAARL
Structure (SMILES),IC50 [1] [µM],"IC50 [2, 5] [µM]",IC50 [3] [µM],IC50 [4] [µM],IC50 [2] [µM]
"N#Cc1cnc(C#Cc2ccc(F)c([C@@]3(CF)N=C(N)S[C@@]4(/C=C/C(=O)N5CCOCC5)C[C@H]43)c2)nc1 [Example 121, 2-((3-((1R,5S,6S)-3-amino-5-(fluoromethyl)-1-((E)-3-morpholino-3-oxoprop-1-en-1-yl)-2-thia-4-azabicyclo[4.1.0]hept-3-en-5-yl)-4-fluorophenyl)ethynyl)pyrimidine-5-carbonitrile]",0.047,1.9,143,0.009,–
"Cc1cc(C#N)cnc1C#Cc1ccc(F)c([C@@]2(CF)N=C(N)S[C@@]3(CF)C[C@H]32)c1 [Example 104, 6-((3-((1S,5S,6S)-3-amino-1,5-bis(fluoromethyl)-2-thia-4-azabicyclo[4.1.0]hept-3-en-5-yl)-4-fluorophenyl)ethynyl)-5-methylnicotinonitrile]",2.28,0.231,1300,0.038,–
"N#Cc1cnc(C#Cc2ccc(F)c([C@@]3(CF)N=C(N)S[C@@]4(/C=C/C(=O)N5CCOCC5)C[C@H]43)c2)c(F)c1 [Example 124, 6-((3-((1R,5S,6S)-3-amino-5-(fluoromethyl)-1-((E)-3-morpholino-3-oxoprop-1-en-1-yl)-2-thia-4-azabicyclo[4.1.0]hept-3-en-5-yl)-4-fluorophenyl)ethynyl)-5-fluoronicotinonitrile]",0.037,0.153,335,0.049,–
"N#Cc1ccc(C#Cc2ccc(F)c([C@@]3(CF)N=C(N)S[C@@]4(/C=C/C(=O)N5CCOCC5)C[C@H]43)c2)cc1 [Example 122, 4-((3-((1R,5S,6S)-3-amino-5-(fluoromethyl)-1-((E)-3-morpholino-3-oxoprop-1-en-1-yl)-2-thia-4-azabicyclo[4.1.0]hept-3-en-5-yl)-4-fluorophenyl)ethynyl)benzonitrile]",0.281,0.049,84.3,0.01,–
"N#Cc1ccc(C#Cc2ccc(F)c([C@@]3(CF)N=C(N)S[C@@]4(Cn5ccnc5)C[C@H]43)c2)nc1 [Example 125, 6-((3-((1S,5S,6S)-1-((1H-imidazol-1-yl)methyl)-3-amino-5-(fluoromethyl)-2-thia-4-azabicyclo[4.1.0]hept-3-en-5-yl)-4-fluorophenyl)ethynyl)nicotinonitrile]",8.08,0.118,248,0.583,–
"CN(C)C(=O)[C@]12C[C@H]1[C@@](C)(c1cc(C#Cc3ccc(C#N)cc3)ccc1F)N=C(N)S2 [Example 129, (1S,5S,6S)-3-amino-5-(5-((4-cyanophenyl)ethynyl)-2-fluorophenyl)-N,N,5-trimethyl-2-thia-4-azabicyclo[4.1.0]hept-3-ene-1-carboxamide]",0.251,–,289,0.007,0.058
"C#CCOc1ccc(C#Cc2ccc(F)c([C@@]3(C)N=C(N)S[C@@]4(C(=O)N(C)C)C[C@H]43)c2)nc1 [Example 130, (1S,5S,6S)-3-amino-5-(2-fluoro-5-((5-(2-propyn-1-yloxy)-2-pyridinyl)ethynyl)phenyl)-N,N,5-trimethyl-2-thia-4-azabicyclo[4.1.0]hept-3-ene-1-carboxamide]",0.432,0.152,926,0.161,–
"Cc1cc(C#N)cnc1C#Cc1ccc(F)c([C@@]2(CF)N=C(N)S[C@@]3(CCC(=O)N4CCOCC4)C[C@H]32)c1 [Example 120, 6-((3-((1S,5S,6S)-3-amino-5-(fluoromethyl)-1-(3-morpholino-3-oxopropyl)-2-thia-4-azabicyclo[4.1.0]hept-3-en-5-yl)-4-fluorophenyl)ethynyl)-5-methylnicotinonitrile]",0.179,0.052,190,0.011,–
"COC[C@]12CC1[C@@](C)(c1cc(C#Cc3ncc(C#N)cc3C)ccc1F)N=C(N)S2 (stereo partly drawn) [Example 135, 6-((3-((1S,5S)-3-amino-1-(methoxymethyl)-5-methyl-2-thia-4-azabicyclo[4.1.0]hept-3-en-5-yl)-4-fluorophenyl)ethynyl)-5-methylnicotinonitrile]",1.47,–,> 400,0.023,0.033
"NC1=N[C@](CF)(c2cc(C#Cc3ccc(Cl)cn3)ccc2F)[C@@H]2C[C@]2(CF)S1 [Example 102, (1S,5S,6S)-5-(5-((5-chloropyridin-2-yl)ethynyl)-2-fluorophenyl)-1,5-bis(fluoromethyl)-2-thia-4-azabicyclo[4.1.0]hept-3-en-3-amine]",0.445,0.685,673,0.182,–
"NC1=N[C@](CF)(c2cc(C#Cc3ncc(Cl)cn3)ccc2F)[C@@H]2C[C@]2(/C=C/C(=O)N2CCOCC2)S1 [Example 117, (E)-3-((1R,5S,6S)-3-amino-5-(5-((5-chloropyrimidin-2-yl)ethynyl)-2-fluorophenyl)-5-(fluoromethyl)-2-thia-4-azabicyclo[4.1.0]hept-3-en-1-yl)-1-morpholinoprop-2-en-1-one]",0.012,0.029,169,0.021,–
"N#Cc1ccc(C#Cc2ccc(F)c([C@@]3(CF)N=C(N)S[C@@]4(/C=C/C(=O)N5CCOCC5)C[C@H]43)c2)nc1 [Example 111, 6-((3-((1R,5S,6S)-3-amino-5-(fluoromethyl)-1-((E)-3-morpholino-3-oxoprop-1-en-1-yl)-2-thia-4-azabicyclo[4.1.0]hept-3-en-5-yl)-4-fluorophenyl)ethynyl)nicotinonitrile]",0.405,0.072,300,0.019,–
"Cc1cc(OCc2ncco2)cnc1C#Cc1ccc(F)c([C@@]2(C)N=C(N)S[C@@]3(C(=O)N(C)C)C[C@H]32)c1 [Example 131, (1S,5S,6S)-3-amino-5-(2-fluoro-5-((3-methyl-5-(oxazol-2-ylmethoxy)pyridin-2-yl)ethynyl)phenyl)-N,N,5-trimethyl-2-thia-4-azabicyclo[4.1.0]hept-3-ene-1-carboxamide]",2.18,0.053,995,0.041,–
"N#Cc1ccc(C#Cc2ccc(F)c([C@@]3(CF)N=C(N)S[C@@]4(CF)C[C@H]43)c2)nc1 [Example 101, 6-((3-((1S,5S,6S)-3-amino-1,5-bis(fluoromethyl)-2-thia-4-azabicyclo[4.1.0]hept-3-en-5-yl)-4-fluorophenyl)ethynyl)nicotinonitrile]",6.04,0.271,2860,0.104,–
"NC1=N[C@](CF)(c2cc(C#Cc3cc(Cl)ccn3)ccc2F)[C@@H]2C[C@]2(CF)S1 [Example 138, (1S,5S,6S)-5-(5-((4-chloropyridin-2-yl)ethynyl)-2-fluorophenyl)-1,5-bis(fluoromethyl)-2-thia-4-azabicyclo[4.1.0]hept-3-en-3-amine]",0.077,–,903,1.12,4.85
"N#Cc1ccc(C#Cc2ccc(F)c([C@@]3(CF)N=C(N)S[C@@]4(CC(N)=O)C[C@H]43)c2)nc1 [Example 113, 2-((1R,5S,6S)-3-amino-5-(5-((5-cyanopyridin-2-yl)ethynyl)-2-fluorophenyl)-5-(fluoromethyl)-2-thia-4-azabicyclo[4.1.0]hept-3-en-1-yl)acetamide]",3.76,0.153,1420,0.116,–
"N#CC[C@]12C[C@H]1[C@@](CF)(c1cc(C#Cc3ccc(C#N)cn3)ccc1F)N=C(N)S2 [Example 106, 6-((3-((1R,5S,6S)-3-amino-1-(cyanomethyl)-5-(fluoromethyl)-2-thia-4-azabicyclo[4.1.0]hept-3-en-5-yl)-4-fluorophenyl)ethynyl)nicotinonitrile]",4.73,0.623,614,0.084,–
"Cc1cc(C#N)cnc1C#Cc1cnc(F)c([C@@]2(C)N=C(N)S[C@@]3(C(=O)N4CCOCC4)CC32)c1 (stereo partly drawn) [Example 136, 6-((5-((1S,5S)-3-amino-5-methyl-1-(morpholine-4-carbonyl)-2-thia-4-azabicyclo[4.1.0]hept-3-en-5-yl)-6-fluoropyridin-3-yl)ethynyl)-5-methylnicotinonitrile]",0.974,–,> 400,0.037,0.181
